Experimental data published in ChEMBL document CHEMBL1201862, “PubChem BioAssay data set” (2004).
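Method: 48-hour compound exposure of cells in 96-well plates, five concentrations, linear interpolation of endpoints. At the GI50, growth is halved.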 Activity calls are given as the source filed them. Rule as the data show it: active = GI50 up to about 1.1 µM and inactive = higher.

Tests used:
Experiment in all cases: NCI anticancer screen, dose series, 48 h
[1] = system: HOP-92
[2] = system: RPMI-8226
[3] = system: SW-620
[4] = system: HT-29
[5] = system: SN12C
[6] = system: IGROV-1
[7] = system: RXF 393
[8] = system: SK-MEL-2
[9] = system: MDA-MB-435
[10] = system: NCI/ADR-RES
[11] = system: OVCAR-3
[12] = system: MDA-MB-231
[13] = system: MDA-N
[14] = system: SK-OV-3
[15] = system: OVCAR-4
[16] = system: SF-268
[17] = system: Malme-3M
[18] = system: MCF7
[19] = system: Hs-578T
[20] = system: HOP-62

| Structure (SMILES) | GI50 [1] | GI50 [2] | GI50 [3] | GI50 [4] | GI50 [5] | GI50 [6] | GI50 [7] | GI50 [8] | GI50 [9] | GI50 [10] | GI50 [11] | GI50 [12] | GI50 [13] | GI50 [14] | GI50 [15] | GI50 [16] | GI50 [17] | GI50 [18] | GI50 [19] | GI50 [20] |
| --- | --- | --- | --- | --- | --- | --- | --- | --- | --- | --- | --- | --- | --- | --- | --- | --- | --- | --- | --- | --- |
| CCOC(=O)[C@@]12C[C@](/C=C/OC)(O[Si](C)(C)C)[C@@]13c1cc(OC)c(OC)cc1CCN3C(=O)C2=O | > 100 µM (inactive) | > 100 µM (inactive) | > 100 µM (inactive) | > 100 µM (inactive) | > 100 µM (inactive) | > 100 µM (inactive) | > 100 µM (inactive) | > 100 µM (inactive) | > 100 µM (inactive) | > 100 µM (inactive) | > 100 µM (inactive) | > 100 µM (inactive) | > 100 µM (inactive) | > 100 µM (inactive) | > 100 µM (inactive) | > 100 µM (inactive) | > 100 µM (inactive) | > 100 µM (inactive) | > 100 µM (inactive) | > 100 µM (inactive) |
| CN(CC(=O)O)Cc1oc(CO)cc(=O)c1O | > 100 µM (inactive) | > 100 µM (inactive) | > 100 µM (inactive) | > 100 µM (inactive) | > 100 µM (inactive) | > 100 µM (inactive) | > 100 µM (inactive) | > 100 µM (inactive) | > 100 µM (inactive) | > 100 µM (inactive) | > 100 µM (inactive) | > 100 µM (inactive) | > 100 µM (inactive) | > 100 µM (inactive) | > 100 µM (inactive) | > 100 µM (inactive) | > 100 µM (inactive) | > 100 µM (inactive) | > 100 µM (inactive) | > 100 µM (inactive) |
| CC(C)OP(=O)(CCCCCCCCC/C=C/c1ccc2c(c1)OCCOCCOCCOCCO2)OC(C)C | 2.2 µM (inactive) | 1.41 µM (inactive) | 3.82 µM (inactive) | 3.05 µM (inactive) | 3.36 µM (inactive) | 4.46 µM (inactive) | 2.7 µM (inactive) | 2.96 µM (inactive) | 3.87 µM (inactive) | 2.98 µM (inactive) | 2.61 µM (inactive) | 2.85 µM (inactive) | 3.4 µM (inactive) | 3.19 µM (inactive) | 4.8 µM (inactive) | 3.8 µM (inactive) | 3.73 µM (inactive) | 3.23 µM (inactive) | 2.45 µM (inactive) | 2.42 µM (inactive) |
| COC(=O)N/N=C(/c1nc2ccc([N+](=O)[O-])cc2nc1O)C(O)c1ccc(OC)c(OC)c1 (stereo not given) | > 100 µM (inactive) | 41.9 µM (inactive) | > 100 µM (inactive) | > 72.9 µM (inactive) | > 100 µM (inactive) | > 100 µM (inactive) | > 100 µM (inactive) | > 100 µM (inactive) | > 100 µM (inactive) | 92 µM (inactive) | > 54.7 µM (inactive) | 64.3 µM (inactive) | > 100 µM (inactive) | > 100 µM (inactive) | > 100 µM (inactive) | > 81.1 µM (inactive) | > 100 µM (inactive) | 88.1 µM (inactive) | 59 µM (inactive) | > 60.5 µM (inactive) |
| COC(=O)c1ccccc1CC1Cc2ccc3c(c2C1=O)CCC3 (stereo not given) | 22.4 µM (inactive) | 30.9 µM (inactive) | 99.1 µM (inactive) | 27.9 µM (inactive) | > 100 µM (inactive) | > 100 µM (inactive) | 35.4 µM (inactive) | 43.9 µM (inactive) | 24.9 µM (inactive) | 28.8 µM (inactive) | > 100 µM (inactive) | 46.2 µM (inactive) | 33.5 µM (inactive) | > 100 µM (inactive) | 29.9 µM (inactive) | > 100 µM (inactive) | 28.8 µM (inactive) | 20.7 µM (inactive) | 43.3 µM (inactive) | > 100 µM (inactive) |
| C[C@@H]1CCC([C@@H](C)[C@H]2CC[C@H]3[C@@H]4CC[C@H]5C[C@@H](O)CC[C@]5(C)[C@H]4CC[C@]23C)=NC1 | > 41.9 µM (inactive) | 2.77 µM (inactive) | 40.8 µM (inactive) | 2.45 µM (inactive) | 8.59 µM (inactive) | 4.71 µM (inactive) | 12.2 µM (inactive) | 14.1 µM (inactive) | 20.7 µM (inactive) | 8.53 µM (inactive) | 20.4 µM (inactive) | 30 µM (inactive) | 9.53 µM (inactive) | 30.9 µM (inactive) | 7.46 µM (inactive) | 12.6 µM (inactive) | 18.1 µM (inactive) | 9.04 µM (inactive) | 33.7 µM (inactive) | 13.4 µM (inactive) |
| O=C(/C=C/c1ccccc1)c1ccccc1 [CHALCONE] | > 10 µM (inactive) | > 4.85 µM (inactive) | 3.34 µM (inactive) | 6.07 µM (inactive) | > 10 µM (inactive) | > 10 µM (inactive) | > 10 µM (inactive) | > 10 µM (inactive) | > 8.13 µM (inactive) | > 10 µM (inactive) | > 10 µM (inactive) | > 10 µM (inactive) | > 10 µM (inactive) | > 10 µM (inactive) | > 10 µM (inactive) | > 10 µM (inactive) | > 10 µM (inactive) | 2.7 µM (inactive) | > 10 µM (inactive) | > 10 µM (inactive) |
| COc1ccc(OC)c(CCc2cc(OC)ccc2OC)c1 | > 10 µM (inactive) | 2.82 µM (inactive) | 0.935 µM (active) | 1.06 µM (active) | 6.98 µM (inactive) | 1.69 µM (inactive) | 2.58 µM (inactive) | 1.49 µM (inactive) | 0.174 µM (active) | 0.885 µM (active) | 0.431 µM (active) | 3.66 µM (inactive) | 0.234 µM (active) | 4.33 µM (inactive) | > 10 µM (inactive) | 7.76 µM (inactive) | 0.369 µM (active) | 0.358 µM (active) | 2.69 µM (inactive) | 3.73 µM (inactive) |
| Nc1ccc(Cn2ccc3c4c(N)nc(N)nc4ccc32)cc1 | 0.71 µM (active) | 0.165 µM (active) | < 0.01 µM (active) | < 0.01 µM (active) | < 0.0207 µM (active) | < 0.01 µM (active) | 0.118 µM (active) | 1.17 µM (inactive) | < 0.01 µM (active) | 0.242 µM (active) | 0.431 µM (active) | 1.06 µM (active) | < 0.01 µM (active) | 12.3 µM (inactive) | 1.54 µM (inactive) | < 0.0156 µM (active) | 0.137 µM (active) | 0.0351 µM (active) | 2.28 µM (inactive) | 0.0141 µM (active) |
| O=C1CC2C(=O)C1C(C(=O)O)C2C(=O)O (stereo not given) | > 100 µM (inactive) | > 100 µM (inactive) | > 100 µM (inactive) | > 100 µM (inactive) | > 100 µM (inactive) | > 100 µM (inactive) | > 100 µM (inactive) | > 100 µM (inactive) | > 100 µM (inactive) | > 100 µM (inactive) | > 100 µM (inactive) | > 100 µM (inactive) | > 100 µM (inactive) | > 100 µM (inactive) | > 100 µM (inactive) | > 100 µM (inactive) | > 100 µM (inactive) | > 100 µM (inactive) | > 100 µM (inactive) | > 100 µM (inactive) |
| c1ccc2c3c([nH]c2c1)C1c2[nH]c4ccccc4c2CCN1CC3 | 2.03 µM (inactive) | 11.9 µM (inactive) | 16.2 µM (inactive) | 10.9 µM (inactive) | 15.2 µM (inactive) | 12.7 µM (inactive) | 13.6 µM (inactive) | 26.8 µM (inactive) | 15.2 µM (inactive) | 2.27 µM (inactive) | 12.4 µM (inactive) | 14.7 µM (inactive) | 18.1 µM (inactive) | 14.1 µM (inactive) | 4.49 µM (inactive) | 14.4 µM (inactive) | 15.1 µM (inactive) | 10.1 µM (inactive) | 17.3 µM (inactive) | 13.6 µM (inactive) |
| COc1ccc2c(c1)CC[C@@H]1[C@@H]2CC[C@]2(C)/C(=N/OCCN3CCCCC3)CC[C@@H]12 | 3.44 µM (inactive) | 2.62 µM (inactive) | 5.11 µM (inactive) | 1.66 µM (inactive) | 4.34 µM (inactive) | 1.95 µM (inactive) | 2.81 µM (inactive) | 6.07 µM (inactive) | 4.56 µM (inactive) | 10 µM (inactive) | 3.69 µM (inactive) | 8.41 µM (inactive) | 2.33 µM (inactive) | 10.3 µM (inactive) | 12.2 µM (inactive) | 9.2 µM (inactive) | 2.25 µM (inactive) | 6.95 µM (inactive) | 6.76 µM (inactive) | 6.25 µM (inactive) |
